Values of other authors as cited in patent publication US5204349A, “Amide-substituted derivatives of spiroindanylcamphorsulfonyl oxytocin antagonists” (priority 1991, dated 1993).
Where two headings read alike, the source gives them in different places.

Columns and labels:
[1] = compared with ritodrine
[2] = tocolytic use, mother and infant

In the case of `CCO` [Ethanol], the “effectiveness in preventing premature labor” value [1] is listed as “as effective as ritodrine in preventing premature labor” and the “reduction in the incidence of fetal respiratory distress” value [1] is listed as “does not produce a corresponding reduction in the incidence of fetal respiratory distress that administration of ritodrine does”.
For `CC(NCCc1ccc(O)cc1)C(O)c1ccc(O)cc1` (stereo not drawn) [Ritodrine], the side effects [2] is given as “causes a number of cardiovascular and metabolic side effects in the mother, including tachycardia, increased renin secretion, hyperglycemia (and reactive hypoglycemia in the infant)”.
For `CC(C)(C)NCC(O)c1cc(O)cc(O)c1` (stereo not drawn) [terbutaline], the side effects [2] is listed as “side effects similar to those of ritodrine”.
In the case of `O=S(=O)([O-])[O-].[Mg+2]` [Magnesium sulfate], the “adverse effects at plasma concentrations above the therapeutic range” value (plasma concentrations above 4 to 8 mg/dL) is given as “can cause inhibition of cardiac conduction and neuromuscular transmission, respiratory depression and cardiac arrest”.
In the case of `CC(C)(C)NCC(O)c1ccc(O)c(CO)c1` (stereo not drawn) [albuterol], the side effects (in vivo) is given as “side effects similar to those of ritodrine”.
